Experimental data: patent US9365523B2, “Imidazolyl amide compounds and uses related thereto” (priority 2011, dated 2016)

Legend:
[1] = test system: MeV-Alaska; test: Viral CPE-reduction assay
Description: To rapidly pre-screen small libraries of compound analogs for antiviral activity, Vero-SLAM cells were infected with MeV-Alaska in four replicates per compound concentration in a 96-well plate format at an MOI of 0.4 pfu/cell in the presence of the inhibitor analyzed ranging from 75 μM to 293 nM in two-fold dilutions. At 96 hours post-infection, cell monolayers were subjected to crystal violet staining (0.1% crystal violet in 20% ethanol), and the absorbance of dried plates at 560 nm determined. Virus-induced cytopathicity was then calculated according to the formula [% rel. CPE=100-(experimental-minimum)/(maximum-minimum)*100], with minimum referring to infected, vehicle-treated wells and maximum to mock-infected wells.

[2] = test system: MeV-Alaska; test: Virus yield reduction assay, MeV; assay type: cell-based, measles virus; conditions: for EC50: Measles morbillivirus
[3] = test system: influenza A/WSN (H1N1); test: microbe, parasite or virus in culture; assay type: cell-based; conditions: read-out: EC50, reduction of virus yield (WSN)
[4] = test system: HPIV3; test: Virus yield reduction assay, HPIV3; assay type: cell-based, human parainfluenzavirus type 3; conditions: Human respirovirus 3
[5] = Measles morbillivirus, read-out: EC50, suppression of viral cytopathic effect (CPE), CPE

SMILES: Cc1ccc(NC(=O)C(C)Sc2nc3ccccc3n2C2CC[N+](C)(C)CC2)c(Cl)c1 (stereo not drawn)
- EC50 [1, 5]: > 75000 nM

SMILES: Cc1ccc(NC(=O)C(C)Sc2nc3ccccc3n2CCN2CCNCC2)c(Cl)c1 (stereo not drawn)
- EC50 [1, 5]: > 75000 nM

SMILES: Cc1ccc(NC(=O)C(C)Sc2nc3ccccc3n2-c2ccc(N3CCOCC3)cc2)c(Cl)c1 (stereo not drawn) [drawing 232]
- EC50 [1, 5]: 300 nM

SMILES: Cc1ccc(NC(=O)C(C)Sc2nc3ccccc3n2-c2ccc(CCN3CCOCC3)cc2)c(Cl)c1 (stereo not drawn)
- EC50 [2]: 111 nM
- EC50 [3]: 43 nM

SMILES: Cc1ccc(NC(=O)[C@@H](C)Sc2nc3ccccc3n2-c2cccc(CCN3CCOCC3)c2)c(Cl)c1
- EC50 [2]: 212 nM
- EC50 [3]: 108 nM

SMILES: COCCN1CCCC(n2c(SC(C)C(=O)Nc3ccc(C)cc3Cl)nc3ccccc32)C1 (stereo not drawn)
- EC50 [1, 5]: 1000 nM

SMILES: Cc1ccc(NC(=O)C(C)Sc2nc3ccccc3n2-c2cccc(CCN(C)C)c2)c(Cl)c1 (stereo not drawn)
- EC50 [1, 5]: 1220 nM

SMILES: Cc1ccc(NC(=O)C(C)Sc2nc3ccccc3n2CCN2CCN(C(C)c3ccc(F)cc3)CC2)c(Cl)c1 (stereo not drawn)
- EC50 [1, 5]: 2170 nM

SMILES: Cc1ccc(NC(=O)[C@@H](C)Sc2nc3ccccc3n2-c2ccccc2CN2CCN(C)CC2)c(Cl)c1
- EC50 [2]: 466 nM
- EC50 [3]: 120 nM

SMILES: Cc1ccc(NC(=O)C(C)Sc2nc3ccccc3n2-c2ccc(CCNC3CCN(C(=O)OC(C)(C)C)CC3)cc2)c(Cl)c1 (stereo not drawn)
- EC50 [1, 5]: 4680 nM

SMILES: CCN1CCCC1Cn1c(SC(C)C(=O)Nc2ccc(C)cc2Cl)nc2ccccc21 (stereo not drawn) [drawing 215]
- EC50 ([1]; read-out: EC50, suppression of viral cytopathic effect (CPE), CPE): 5520 nM

SMILES: Cc1ccc(NC(=O)C(C)Sc2nc3ccccc3n2-c2cccc(CCN3CCOCC3)c2)c(Cl)c1 (stereo not drawn)
- EC50 [2]: 12.9 nM
- EC50 [3]: 0.3 nM

SMILES: Cc1ccc(NC(=O)[C@H](C)Sc2nc3ccccc3n2-c2ccc(CCN3CCOCC3)cc2)c(Cl)c1
- EC50 [4]: 80 nM
- EC50 ([2]; MeV): 179 nM
- EC50 [3]: 36 nM

SMILES: Cc1ccc(NC(=O)[C@H](C)Sc2nc3ccccc3n2-c2cccc(CCN3CCOCC3)c2)c(Cl)c1
- EC50 [4]: 16 nM
- EC50 ([2]; MeV): 10.8 nM
- EC50 [3]: 1.5 nM

SMILES: CCN1CCN(CCn2c(SC(C)C(=O)Nc3ccc(C)cc3Cl)nc3ccccc32)CC1 (stereo not drawn)
- EC50 [1, 5]: 18800 nM

SMILES: Cc1ccc(NC(=O)C(C)Sc2nc3ccccc3n2C2CCCCC2)c(Cl)c1 (stereo not drawn) [drawing 216]
- EC50 [1, 5]: 290 nM

SMILES: Cc1ccc(NC(=O)C(C)Sc2nc3ccccc3n2[C@H]2CCCC[C@@H]2O)c(Cl)c1 (stereo partly drawn)
- EC50 [1, 5]: 872 nM

SMILES: Cc1ccc(NC(=O)C(C)Sc2nc3ccccc3n2-c2ccccc2CN2CCN(C)CC2)c(Cl)c1 (stereo not drawn) [drawing 259]
- EC50 [2]: 40.8 nM
- EC50 [3]: 8 nM

SMILES: Cc1ccc(NC(=O)C(C)Sc2nc3ccccc3n2-c2cccc(CN3CCN(C)CC3)c2)c(Cl)c1 (stereo not drawn) [drawing 252]
- EC50 [1, 5]: 1280 nM

SMILES: COc1ccc(-n2c(SC(CCO)C(=O)Nc3ccccc3)nc3ccccc32)cc1 (stereo not drawn)
- EC50 [1, 5]: 27800 nM

SMILES: Cc1ccc(NC(=O)C(C)Sc2nc3ccccc3n2N2CCN(C)CC2)c(Cl)c1 (stereo not drawn)
- EC50 [1, 5]: > 75000 nM

SMILES: O=C1Cc2c([nH]c3ccc([N+](=O)[O-])cc23)-c2ccccc2N1 [Alsterpaullone, reference compound]
- reduction in MeV yields ([2]; highest concentration assessed (50 μM), Vero-Slam cells): only a marginal reduction

SMILES: Cc1ccc(NC(=O)C(C)Sc2nc3ccccc3n2-c2ccc(CCO)cc2)c(Cl)c1 (stereo not drawn) [drawing 224]
- EC50 [1, 5]: 2500 nM

SMILES: Cc1ccc(NC(=O)C(C)Sc2nc3ccccc3n2CCN2CCN(C(=O)OC(C)(C)C)CC2)c(Cl)c1 (stereo not drawn)
- EC50 [1, 5]: 1320 nM

SMILES: Cc1ccc(NC(=O)[C@H](C)Sc2nc3ccccc3n2-c2ccccc2CN2CCN(C)CC2)c(Cl)c1
- EC50 [4]: 16 nM
- EC50 ([2]; MeV): 685 nM
- EC50 [3]: 4 nM

SMILES: Cc1ccc(NC(=O)C(C)Sc2nc3ccccc3n2-c2cccc(CCN3CCCC3)c2)c(Cl)c1 (stereo not drawn)
- EC50 [1, 5]: 1660 nM

SMILES: Cc1ccc(NC(=O)C(C)Sc2nc3ccccc3n2-c2ccc(CC=O)cc2)c(Cl)c1 (stereo not drawn) [drawing 225]
- EC50 [1, 5]: 8500 nM

SMILES: Cc1ccc(NC(=O)C(C)Sc2nc3ccccc3n2-c2ccc(CO)cc2)c(Cl)c1 (stereo not drawn) [drawing 229]
- EC50 [1, 5]: 3910 nM

SMILES: Cc1ccc(NC(=O)C(C)Sc2nc3ccccc3n2-c2cccc(CCN3CCCCC3)c2)c(Cl)c1 (stereo not drawn)
- EC50 [1, 5]: 1520 nM

SMILES: Cc1ccc(NC(=O)C(C)Sc2nc3ccccc3n2-c2ccc(CCNCCN3CCOCC3)cc2)c(Cl)c1 (stereo not drawn)
- EC50 [1, 5]: 1910 nM

SMILES: Cc1ccc(NC(=O)C(C)Sc2nc3ccccc3n2CC2CCN(C(=O)OC(C)(C)C)CC2)c(Cl)c1 (stereo not drawn)
- EC50 [1, 5]: 1310 nM

SMILES: Cc1ccc(NC(=O)C(C)Sc2nc3ccccc3n2-c2ccccc2CO)c(Cl)c1 (stereo not drawn)
- EC50 [1, 5]: 800 nM

SMILES: Cc1ccc(NC(=O)C(C)Sc2nc3ccccc3n2C2CCNCC2)c(Cl)c1 (stereo not drawn) [drawing 219]
- EC50 [1, 5]: > 75000 nM

SMILES: Cc1ccc(NC(=O)C(C)Sc2nc3ccccc3n2CC2CCN(C(C)c3ccc(F)cc3)CC2)c(Cl)c1 (stereo not drawn)
- EC50 [1, 5]: 1170 nM

SMILES: Cc1ccc(NC(=O)C(C)Sc2nc3ccccc3n2C2CCCN(CCO)C2)c(Cl)c1 (stereo not drawn)
- EC50 [1, 5]: 10000 nM

SMILES: Cc1ccc(NC(=O)C(C)Sc2nc3ccccc3n2-c2cccc(CO)c2)c(Cl)c1 (stereo not drawn) [drawing 230]
- EC50 [1, 5]: 700 nM

SMILES: Cc1ccc(NC(=O)C(C)Sc2nc3ccccc3n2CC2CCNCC2)c(Cl)c1 (stereo not drawn)
- EC50 [1, 5]: > 75000 nM
